Key:
Format in all cases: biochemical, Numidum massiliense
[1] = test system: D-type amino acid dehydrogenase derived from N. massiliense (wild type); test: D-amino acid synthesis activity, wild type enzyme; conditions: 5 mM 2-oxo acid, 200 mM ammonium chloride, pH 9.5, 50° C.; for D-amino acid synthesis activity (specific activity), Wild type, NADH: 0.1 mM NADH; for D-amino acid synthesis activity (specific activity), Wild type, NADPH: 0.1 mM NADPH
Experimental: (§1) The activity of the enzyme was measured by determining a decrease in absorbance at wavelength of 340 nm of NADPH or NADH produced by the catalytic reaction of the enzyme. […] The absorbance was measured by an ultraviolet-visible spectrophotometer UV-1800 (available from SHIMADZU).

[2] = test system: three-mutation introduced D-type amino acid dehydrogenase (Thr174Ile, Arg184Met, His230Asn); test: D-amino acid synthesis activity, three-mutation enzyme; conditions: 5 mM 2-oxo acid, 200 mM ammonium chloride, pH 9.5, 50° C.; for D-amino acid synthesis activity (specific activity), Three-mutation enzyme, NADH: 0.1 mM NADH; for D-amino acid synthesis activity (specific activity), Three-mutation enzyme, NADPH: 0.1 mM NADPH
From the text: DNA encoding polypeptide in which three types of mutations (Thr174Ile, Arg184Met, and His230Asn) were introduced into the amino acid sequence of D-type amino acid dehydrogenase derived from N. massiliense was obtained by synthesis. This was cleaved with restriction enzymes NdeI and EcoRI, separated by agarose gel electrophoresis, and then extracted and purified from the gel. DNA fragments after a restriction enzyme treatment were incorporated into restriction enzyme sites (NdeI and EcoRI) of pET-21a(+) (available from Novagen) of a plasmid for protein expression by a ligation reaction to construct an expression vector that retains three-mutation introduced D-type amino acid dehydrogenase gene. The expression vector was constructed such that the three-mutation introduced D-type amino acid dehydrogenase gene was incorporated into downstream of the T7 promoter and the […] binding site, and upstream of the T7 terminator.
as §1

[3] = test system: five-mutation introduced D-type amino acid dehydrogenase (Met155Leu, Val159Gly, Thr174Ile, Arg184Met, His230Asn); test: D-amino acid synthesis activity, five-mutation enzyme; conditions: 5 mM 2-oxo acid, 200 mM ammonium chloride, pH 9.5, 50° C.; for D-amino acid synthesis activity (specific activity), Five-mutation enzyme, NADH: 0.1 mM NADH; for D-amino acid synthesis activity (specific activity), Five-mutation enzyme, NADPH: 0.1 mM NADPH
Experimental: In order to prepare a gene for a mutant enzyme in which five types of mutations (Met155Leu, Val159Gly, Thr174Ile, Arg184Met, and His230Asn) are introduced into the D-type amino acid dehydrogenase derived from N. massiliense, the six mutation-introduced D-type amino acid dehydrogenase/pET-21a(+) prepared above was used as a template to prepare the expression vector by PCR using “PrimeSTAR Max DNA Polymerase” available from Takara Bio Inc. PCR was performed according to the manufacturer's protocol. A PCR reaction solution was prepared by containing 0.3 μM of each of the following primers and 50 ng of templet DNA as described above.
as §1

[4] = test system: six-mutation introduced D-type amino acid dehydrogenase (Asp95Ser, Met155Leu, Val159Gly, Thr174Ile, Arg184Met, His230Asn); test: D-amino acid synthesis activity, six-mutation enzyme; conditions: 5 mM 2-oxo acid, 200 mM ammonium chloride, pH 9.5, 50° C.; for D-amino acid synthesis activity (specific activity), Six-mutation enzyme, NADH: 0.1 mM NADH; for D-amino acid synthesis activity (specific activity), Six-mutation enzyme, NADPH: 0.1 mM NADPH
Experimental: DNA encoding polypeptide into which six types of mutations (Asp95Ser, Met155Leu, Val159Gly, Thr174Ile, Arg184Met, and His230Asn) were introduced into the amino acid sequence of D-type amino acid dehydrogenase derived from N. massiliense was obtained by synthesis. An expression vector that retains the six-mutation introduced D-type amino acid dehydrogenase gene was further constructed in the same manner as described above.
as §1

Row | Structure (SMILES) | D-amino acid synthesis activity (specific activity), Wild type, NADH [1] | D-amino acid synthesis activity (specific activity), Wild type, NADPH [1] [µmol/min/mg] | D-amino acid synthesis activity (specific activity), Three-mutation enzyme, NADH [2] | D-amino acid synthesis activity (specific activity), Three-mutation enzyme, NADPH [2] | D-amino acid synthesis activity (specific activity), Five-mutation enzyme, NADH [3] | D-amino acid synthesis activity (specific activity), Five-mutation enzyme, NADPH [3] | D-amino acid synthesis activity (specific activity), Six-mutation enzyme, NADH [4] | D-amino acid synthesis activity (specific activity), Six-mutation enzyme, NADPH [4]
1 | CC(C)C(=O)C(=O)O [2-oxo-3-methylbutanoic acid] | 0.0012 µmol/min/mg | 0.26 | 0.043 µmol/min/mg | 2.5 µmol/min/mg | 0.018 µmol/min/mg | 2.4 µmol/min/mg | No | 0.051 µmol/min/mg
2 | CCC(C)C(=O)C(=O)O (centres unmarked) [2-oxo-3-methylpentanoic acid] | No | 0.18 | 0.043 µmol/min/mg | 4.7 µmol/min/mg | 0.025 µmol/min/mg | 4.0 µmol/min/mg | 0.0030 µmol/min/mg | 0.23 µmol/min/mg
3 | O=C(O)C(=O)Cc1ccccc1 [2-oxo-3-phenylpropanoic acid] | 0.011 µmol/min/mg | 1.5 | 0.028 µmol/min/mg | 1.5 µmol/min/mg | 0.012 µmol/min/mg | 2.7 µmol/min/mg | 0.018 µmol/min/mg | 2.1 µmol/min/mg
4 | CSCCC(=O)C(=O)O [2-oxo-4-(methylthio)butanoic acid] | No | 2.0 | 0.013 µmol/min/mg | 5.2 µmol/min/mg | 0.069 µmol/min/mg | 12.3 µmol/min/mg | 0.024 µmol/min/mg | 2.8 µmol/min/mg
5 | CC(C)CC(=O)C(=O)O [2-oxo-4-methylpentanoic acid] | No | 0.803 | 0.044 µmol/min/mg | 4.6 µmol/min/mg | 0.055 µmol/min/mg | 9.0 µmol/min/mg | 0.011 µmol/min/mg | 1.2 µmol/min/mg
6 | O=C(O)CC(=O)C(=O)O [2-oxobutanedioic acid] | 0.13 µmol/min/mg | 5.2 | 0.12 µmol/min/mg | 2.0 µmol/min/mg | 0.25 µmol/min/mg | 0.39 µmol/min/mg | 0.14 µmol/min/mg | 0.44 µmol/min/mg
7 | CCC(=O)C(=O)O [2-oxobutanoic acid] | 0.011 µmol/min/mg | 1.4 | 0.028 µmol/min/mg | 2.2 µmol/min/mg | 0.014 µmol/min/mg | 1.6 µmol/min/mg | 0.0011 µmol/min/mg | 0.027 µmol/min/mg
8 | O=C(O)CCC(=O)C(=O)O [2-oxoglutaric acid] | No | 0.11 | No | No | No | No | No | No
9 | CCCCCCC(=O)C(=O)O [2-oxooctanoic acid] | No | 5.8 | 0.039 µmol/min/mg | 8.2 µmol/min/mg | 0.050 µmol/min/mg | 11.2 µmol/min/mg | 1.0 µmol/min/mg | 9.0 µmol/min/mg
10 | CC(=O)C(=O)O [2-oxopropanoic acid] | 0.13 µmol/min/mg | 4.7 | 0.000 µmol/min/mg | 2.2 µmol/min/mg | 0.046 µmol/min/mg | 0.30 µmol/min/mg | 0.12 µmol/min/mg | 0.0070 µmol/min/mg

— patent US10927354B2, “D-type amino acid dehydrogenase” (Kureha Corporation, priority 2017, dated 2021)
